# From patent US6365053B1, “Removal of H2S in drilling mud” (Statoil Asa, priority 1998, dated 2002)
# Experiments:
# [1] = H2S absorption by iron oxalate in oil based mud (interdrill 1.62), GGT analysis (Example 2); settings: 400 mg iron oxalate in 15 ml interdrill 1.62 oil based mud, water phase pH 12.5, 1.5 ml solution D
# Description: In A, B and C iron oxalate was added.
# The jar containing the mixture was then shaken. From this mixture a new sample of 1 ml mud was taken out with a syringe. This new sample consisting of 1 ml mud was mixed with 20 ml of water and further analysed in GGT (Garret Gas Train) whereby the mixture was stirred with a magnetic stirrer.
# The mud which was used in example 2 was of the type interdrill 1.62 (density of the mud), wherein the pH value in the water phase is 12.5.
# [2] = H2S absorption by iron oxalate at low concentrations of H2S, GGT analysis (Example 3); settings: low H2S concentration, 200 mg iron oxalate in 15 ml mud, 1.5 ml solution D
# Description: Measurements at low concentrations of H2S were also carried out.
# From this mixture a new sample of 1 ml mud was taken out with a syringe and mixed with 20 ml of water and analysed in GGT (Garret Gas Train) whereby the mixture was stirred with a magnetic stirrer.
smiles,measurement,setting,value
"O=C([O-])C(=O)[O-].[Fe+2] [iron oxalate, iron(II) oxalate]",Amount of remaining H2S in the mud sample measured by GGT analysis,[1]; ageing 17 hours,51 ppm
same,Amount of remaining H2S in the mud sample measured by GGT analysis,[1]; ageing 40 hours,34 ppm
same,Amount of remaining H2S in the mud sample measured by GGT analysis,[1]; ageing 64 hours,57 ppm
same,Amount of remaining H2S in the mud sample measured by GGT analysis,[2]; ageing 1 hour,8.5 ppm
same,Amount of remaining H2S in the mud sample measured by GGT analysis,[2]; ageing 18 hours,0 ppm
same,Amount of remaining H2S in the mud sample measured by GGT analysis,[2]; ageing 25 hours,0 ppm
